Biological target: T1, Vitamin D3 receptor (Homo sapiens, UniProt P11473)
T1 sequence (P11473 whole entry): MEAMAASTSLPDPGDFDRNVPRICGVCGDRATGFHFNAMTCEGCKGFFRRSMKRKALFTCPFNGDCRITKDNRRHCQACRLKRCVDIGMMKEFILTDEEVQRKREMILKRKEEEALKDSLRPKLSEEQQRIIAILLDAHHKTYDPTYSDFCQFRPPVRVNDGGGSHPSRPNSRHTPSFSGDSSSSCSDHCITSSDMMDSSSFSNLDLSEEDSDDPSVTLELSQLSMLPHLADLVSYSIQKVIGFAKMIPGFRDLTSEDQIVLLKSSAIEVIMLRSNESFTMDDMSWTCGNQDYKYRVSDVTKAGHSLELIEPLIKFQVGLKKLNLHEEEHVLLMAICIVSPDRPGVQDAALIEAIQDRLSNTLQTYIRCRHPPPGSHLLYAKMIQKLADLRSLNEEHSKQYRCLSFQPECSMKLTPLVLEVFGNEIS
Test: Activity at human VDR expressed in human HOS cells transfected with pGL3-hOc, pCDNA-hVDR and phRL-TK assessed as assessed as transcriptional activation measured 24 hrs post […] by luciferase reporter gene assay
Assay type: cell-based

EC50 | Structure (SMILES)
1.25 nM | CCC(CC)(c1ccc(OC[C@H](O)C(C)(C)C)c(C)c1)c1ccc(O[C@H](CO)[C@H](O)CO)c(C)c1
0.92 nM | CCC(CC)(c1ccc(OC[C@H](O)C(C)(C)C)c(C)c1)c1ccc(O[C@@H](CO)[C@@H](O)CO)c(C)c1

Second part, the compound before the results:

Structure (SMILES) | EC50
CCC(CC)(c1ccc(OC[C@H](O)C(C)(C)C)c(C)c1)c1ccc(O[C@@H](CO)CCO)c(C)c1 | 0.06 nM
CCC(CC)(c1ccc(OC[C@H](O)C(C)(C)C)c(C)c1)c1ccc(OC(CCO)CCO)c(C)c1 | 19.4 nM
CCC(CC)(c1ccc(OC[C@H](O)C(C)(C)C)c(C)c1)c1ccc(O[C@H](CO)CCO)c(C)c1 | 1.29 nM
CCC(CC)(c1ccc(OCC(CO)CO)c(C)c1)c1ccc(OC[C@H](O)C(C)(C)C)c(C)c1 | 1.11 nM

From ChEMBL document CHEMBL1833851, “Design, synthesis and X-ray crystallographic study of new nonsecosteroidal vitamin D receptor ligands” (Bioorg Med Chem Lett, 2011)
